Measured values as given in PubChem BioAssay AID1918996 (Molecular Pharmacology Branch, DTP, NCI, 2023).

System: 349418-098-R-PDC complex spheroid growth
Assay: Anticancer human tumor 349418-098-R-PDC patient-derived lung adenocarcinoma cell line growth inhibition [AhR]
Conditions: for IC50: curve of first compound; for viability, T/C: stronger effect = lower value
Procedure, shortened: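 Agents were dosed in half-log steps down from roughly clinical Cmax, or from 10 microM where Cmax was unknown, alone and with AhR antagonists. Read-out: percent test/control growth of tumor spheroids containing HUVEC and MSC stromal cells.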

[1] = second compound 0.1 µM, first compound 0.00949 µM
[2] = second compound 0.1 µM, first compound 0.03 µM
[3] = second compound 0.1 µM, first compound 0.0949 µM
[4] = second compound 0.1 µM, first compound 0.3 µM
[5] = second compound 0.1 µM, first compound 0.949 µM
[6] = second compound 0.1 µM, first compound 3 µM
[7] = second compound 0.316 µM, first compound 0.00949 µM
[8] = second compound 0.316 µM, first compound 0.03 µM
[9] = second compound 0.316 µM, first compound 0.0949 µM
[10] = second compound 0.316 µM, first compound 0.3 µM
[11] = second compound 0.316 µM, first compound 0.949 µM
[12] = second compound 0.316 µM, first compound 3 µM
[13] = second compound 1 µM, first compound 0.00949 µM
[14] = second compound 1 µM, first compound 0.03 µM
[15] = second compound 1 µM, first compound 0.0949 µM
[16] = second compound 1 µM, first compound 0.3 µM
[17] = second compound 1 µM, first compound 0.949 µM
[18] = second compound 1 µM, first compound 3 µM
[19] = second compound 3.16 µM, first compound 0.00949 µM
[20] = second compound 3.16 µM, first compound 0.03 µM
[21] = second compound 3.16 µM, first compound 0.0949 µM
[22] = second compound 3.16 µM, first compound 0.3 µM
[23] = second compound 3.16 µM, first compound 0.949 µM
[24] = second compound 3.16 µM, first compound 3 µM
[25] = second compound 10 µM, first compound 0.00949 µM
[26] = second compound 10 µM, first compound 0.03 µM
[27] = second compound 10 µM, first compound 0.0949 µM
[28] = second compound 10 µM, first compound 0.3 µM
[29] = second compound 10 µM, first compound 0.949 µM
[30] = second compound 10 µM, first compound 3 µM
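Note: spheroids exposed to agents for seven days before luminescence viability read.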
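Throughout, for viability, T/C: spheroids also contain HUVEC endothelial cells and human MSC stroma.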

IC50 (second compound 0.1 µM) [nM]	IC50 (second compound 0.316 µM) [nM]	IC50 (second compound 1 µM) [nM]	IC50 (second compound 3.16 µM) [nM]	IC50 (second compound 10 µM) [nM]	Compound	viability, T/C [1] [%]	viability, T/C [2] [%]	viability, T/C [3] [%]	viability, T/C [4] [%]	viability, T/C [7] [%]	viability, T/C [8] [%]	viability, T/C [9] [%]	viability, T/C [10] [%]	viability, T/C [13] [%]	viability, T/C [14] [%]	viability, T/C [15] [%]	viability, T/C [16] [%]	viability, T/C [19] [%]	viability, T/C [20] [%]	viability, T/C [21] [%]	further results
> 3000	> 3000	> 3000	> 3000	273	CCN(c1cc(-c2ccc(CN3CCOCC3)cc2)cc(C(=O)NCc2c(C)cc(C)[nH]c2=O)c1C)C1CCOCC1 + CC(CO)NC(=O)c1cc(-c2ccc(Cl)cc2)nn(-c2cnn(C)c2)c1=O	110	110	86.7	79.4	95	118	107	89.2	114	123	107	76.2	77.5	63.4	72.4	viability, T/C [5]: 87.1%; viability, T/C [6]: 74.7%; viability, T/C [11]: 96%; viability, T/C [12]: 76.1%; viability, T/C [17]: 95.1%; viability, T/C [18]: 59.7%; viability, T/C [22]: 67.9%; viability, T/C [23]: 41.9%; viability, T/C [24]: 70.4%; viability, T/C [25]: 54.2%; viability, T/C [26]: 79%; viability, T/C [27]: 85.6%; viability, T/C [28]: 40.5%; viability, T/C [29]: 55.5%; viability, T/C [30]: 47.9%
87.6	32.4	45.7	24.9	19.9	Nc1ncn(C2CC(O)C(CO)S2)c(=O)n1 (stereo not given) + CC(CO)NC(=O)c1cc(-c2ccc(Cl)cc2)nn(-c2cnn(C)c2)c1=O	56.2	62.2	60.8	31.9	68.8	52.6	47.8	27.4	90.5	53.7	37.8	21.4	66.5	47	39.9	viability, T/C (second compound 0.1 µM, first compound 0.000949 µM): 86.5%; viability, T/C (second compound 0.1 µM, first compound 0.003 µM): 85.5%; viability, T/C (second compound 0.316 µM, first compound 0.000949 µM): 72.6%; viability, T/C (second compound 0.316 µM, first compound 0.003 µM): 118%; viability, T/C (second compound 1 µM, first compound 0.000949 µM): 96.4%; viability, T/C (second compound 1 µM, first compound 0.003 µM): 68.9%; viability, T/C (second compound 3.16 µM, first compound 0.000949 µM): 86.1%; viability, T/C (second compound 3.16 µM, first compound 0.003 µM): 58%; viability, T/C [22]: 24.2%; viability, T/C (second compound 10 µM, first compound 0.000949 µM): 53.5%; viability, T/C (second compound 10 µM, first compound 0.003 µM): 71.8%; viability, T/C [25]: 60%; viability, T/C [26]: 43.1%; viability, T/C [27]: 33.3%; viability, T/C [28]: 24.5%
< 9.49	< 9.49	16.9	< 9.49	< 9.49	O=C(C=Cn1cnc(-c2cc(C(F)(F)F)cc(C(F)(F)F)c2)n1)NNc1cnccn1 + CC(CO)NC(=O)c1cc(-c2ccc(Cl)cc2)nn(-c2cnn(C)c2)c1=O	44.2	32.1	18	9.7	42.7	34.2	22.2	10.9	62.4	37.9	20.1	11.7	48	43.3	18.6	viability, T/C [5]: 8.06%; viability, T/C [6]: 6.68%; viability, T/C [11]: 7.86%; viability, T/C [12]: 5.14%; viability, T/C [17]: 9.27%; viability, T/C [18]: 5.79%; viability, T/C [22]: 9.44%; viability, T/C [23]: 7.82%; viability, T/C [24]: 5.81%; viability, T/C [25]: 36.1%; viability, T/C [26]: 34.6%; viability, T/C [27]: 18.9%; viability, T/C [28]: 8.82%; viability, T/C [29]: 7.38%; viability, T/C [30]: 6.61%
